In US20060069132A1, “Azolecarboxamide herbicides” (priority 2004, published 2006):

Legend:
pigweed = test: Test B pre-/postemergence herbicide test; format: in vivo, Amaranthus retroflexus
How it was run: (§1)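 Visual rating, 0 (no effect) to 100 (complete control), versus untreated controls after 13–15 d in greenhouse. Pre- and postemergence applications (postemergence plants 2–18 cm, 1–4 leaves); flooded paddy arm at 2-leaf stage. Compounds in non-phytotoxic solvent plus surfactant.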

common ragweed = test: Test C pre-/postemergence herbicide test; format: in vivo, Ambrosia elatior; parameters: key to Plant response rating, Ragweed: 0 = no effect, 100 = complete control; settings: for Plant response rating (0 = no effect, 100 = complete control), Ragweed / Plant response rating, Ragweed: preemergence; for Ragweed plant response rating: Preemergence, scale 0 to 100, 0 no effect, 100 complete control
How it was run: (§2)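 Pre- and postemergence application, solvent/surfactant formulation; post at 1- to 4-leaf stage (2–18 cm). Greenhouse 12–14 d. Visual rating vs controls, 0 = no effect, 100 = complete control.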

giant foxtail = test: Test B pre-/postemergence herbicide test; format: in vivo, Setaria faberi
How it was run: as §1

kochia = test: Test C pre-/postemergence herbicide test; format: in vivo, Kochia scoparia; settings: for Plant response rating (0 = no effect, 100 = complete control), Kochia / Plant response rating, Kochia: preemergence; for Kochia plant response rating: Preemergence, scale 0 to 100, 0 no effect, 100 complete control
How it was run: as §2

lambsquarters = test: Test C pre-/postemergence herbicide test; format: in vivo, Chenopodium album; settings: for Plant response rating (0 = no effect, 100 = complete control), Lambsquarters / Plant response rating, Lambsquarters: preemergence; for Lambsquarters plant response rating: Preemergence, scale 0 to 100, 0 no effect, 100 complete control
How it was run: as §2

large crabgrass = test: Test C pre-/postemergence herbicide test; format: in vivo, Digitaria sanguinalis; settings: for Plant response rating (0 = no effect, 100 = complete control), Crabgrass, Large / Plant response rating, Crabgrass, Large: preemergence; for Crabgrass, Large plant response rating: Preemergence, scale 0 to 100, 0 no effect, 100 complete control
How it was run: as §2

goosegrass = test: Test C pre-/postemergence herbicide test; format: in vivo, Eleusine indica; settings: for Plant response rating (0 = no effect, 100 = complete control), Goosegrass / Plant response rating, Goosegrass: preemergence; for Goosegrass plant response rating: Preemergence, scale 0 to 100, 0 no effect, 100 complete control
How it was run: as §2

Surinam grass = test: Test C pre-/postemergence herbicide test; format: in vivo, Urochloa decumbens; settings: for Plant response rating (0 = no effect, 100 = complete control), Surinam Grass / Plant response rating, Surinam Grass: preemergence; for Surinam Grass plant response rating: Preemergence, scale 0 to 100, 0 no effect, 100 complete control
How it was run: as §2

[1] = Postemergence, 500 g ai/ha, visual rating after 13 to 15 days, scale 0 (no effect) to 100 (complete control)
[2] = postemergence, 125 g ai/ha, visual rating, scale 0 (no effect) to 100 (complete control)
[3] = preemergence, 125 g ai/ha, 0 to 100 scale, 0 is no effect, 100 is complete control
[4] = 125 g ai/ha, scale 0 (no effect) to 100 (complete control), visual, 12 to 14 days
[5] = 250 g ai/ha, scale 0 to 100 (0 no effect, 100 complete control), visual, 12 to 14 days
[6] = 500 g ai/ha, visual rating 0-100, 0 no effect, 100 complete control, preemergence
[7] = postemergence, 500 g ai/ha, visual rating, scale 0 (no effect) to 100 (complete control)
[8] = 125 g ai/ha, 0 is no effect, 100 is complete control, preemergence
[9] = Postemergence, 500 g ai/ha, scale 0 (no effect) to 100 (complete control)
[10] = postemergence, 125 g ai/ha, scale 0 to 100
[11] = 500 g ai/ha, scale 0 to 100 (0 no effect, 100 complete control), visual, 12 to 14 days

Structure (SMILES): CCn1nc(C(C)(C)C)cc1C(=O)Nc1cccc(C(=O)NCC(C)C)c1 [Compound 61]
- Plant response rating, Pigweed (pigweed; [1]): 60
- Pigweed plant response rating (pigweed; [2]): 20
- Plant response rating, Pigweed (pigweed; [3]): 80
- Plant response rating (0 = no effect, 100 = complete control), Ragweed (common ragweed; 62 g ai/ha): 0
- Plant response rating, Ragweed (common ragweed; [4]): 0
- Plant response rating, Ragweed (common ragweed; [5]): 80
- Ragweed plant response rating (common ragweed; 500 g ai/ha): 80
- Plant response rating, Foxtail, Giant (giant foxtail; [1]): 30
- Foxtail, Giant plant response rating (giant foxtail; Preemergence, 500 g ai/ha, scale 0 to 100): 80
- Foxtail, Giant plant response rating (giant foxtail; [2]): 20
- Plant response rating, Foxtail, Giant (giant foxtail; [3]): 20
- Plant response rating (0 = no effect, 100 = complete control), Kochia (kochia; 62 g ai/ha): 10
- Plant response rating, Kochia (kochia; [4]): 100
- Plant response rating, Kochia (kochia; [5]): 100
- Kochia plant response rating (kochia; 500 g ai/ha): 100
- Plant response rating (0 = no effect, 100 = complete control), Lambsquarters (lambsquarters; 62 g ai/ha): 100
- Plant response rating, Lambsquarters (lambsquarters; [4]): 100
- Plant response rating, Lambsquarters (lambsquarters; [5]): 100
- Lambsquarters plant response rating (lambsquarters; 500 g ai/ha): 100
- Plant response rating (0 = no effect, 100 = complete control), Crabgrass, Large (large crabgrass; 62 g ai/ha): 50
- Plant response rating, Crabgrass, Large (large crabgrass; [4]): 75
- Plant response rating, Crabgrass, Large (large crabgrass; [5]): 100
- Crabgrass, Large plant response rating (large crabgrass; 500 g ai/ha): 100
- Plant response rating (0 = no effect, 100 = complete control), Goosegrass (goosegrass; 62 g ai/ha): 0
- Plant response rating, Goosegrass (goosegrass; [4]): 40
- Plant response rating, Goosegrass (goosegrass; [5]): 70
- Goosegrass plant response rating (goosegrass; 500 g ai/ha): 95
- Plant response rating (0 = no effect, 100 = complete control), Surinam Grass (Surinam grass; 62 g ai/ha): 0
- Plant response rating, Surinam Grass (Surinam grass; [4]): 0
- Plant response rating, Surinam Grass (Surinam grass; [5]): 5
- Surinam Grass plant response rating (Surinam grass; 500 g ai/ha): 5

Structure (SMILES): CCN(CC)C(=O)c1ccnc(NC(=O)c2cc(C(C)(C)C)nn2CC)c1 [Compound 153]
- Plant response rating, Pigweed (pigweed; [6]): 100
- Pigweed plant response rating (pigweed; [2]): 20
- Pigweed plant response rating (pigweed; [7]): 70
- Plant response rating, Pigweed (pigweed; [3]): 100
- Plant response rating, Ragweed (common ragweed; 62 g ai/ha, scale 0 to 100): 0
- Plant response rating, Ragweed (common ragweed; [4]): 0
- Ragweed plant response rating (common ragweed; 500 g ai/ha): 100
- Plant response rating, Foxtail, Giant (giant foxtail; [6]): 50
- Foxtail, Giant plant response rating (giant foxtail; [2]): 10
- Foxtail, Giant plant response rating (giant foxtail; [7]): 20
- Plant response rating, Foxtail, Giant (giant foxtail; [3]): 0
- Plant response rating, Kochia (kochia; 62 g ai/ha, scale 0 to 100): 65
- Plant response rating, Kochia (kochia; [4]): 95
- Kochia plant response rating (kochia; 500 g ai/ha): 100
- Plant response rating, Lambsquarters (lambsquarters; 62 g ai/ha, scale 0 to 100): 95
- Plant response rating, Lambsquarters (lambsquarters; [4]): 100
- Lambsquarters plant response rating (lambsquarters; 500 g ai/ha): 100
- Plant response rating, Crabgrass, Large (large crabgrass; 62 g ai/ha, scale 0 to 100): 0
- Plant response rating, Crabgrass, Large (large crabgrass; [4]): 0
- Plant response rating, Crabgrass, Large (large crabgrass; [5]): 0
- Crabgrass, Large plant response rating (large crabgrass; 500 g ai/ha): 80
- Plant response rating, Goosegrass (goosegrass; 62 g ai/ha, scale 0 to 100): 55
- Plant response rating, Goosegrass (goosegrass; [4]): 75
- Goosegrass plant response rating (goosegrass; 500 g ai/ha): 95
- Plant response rating, Surinam Grass (Surinam grass; 62 g ai/ha, scale 0 to 100): 0
- Plant response rating, Surinam Grass (Surinam grass; [4]): 0
- Surinam Grass plant response rating (Surinam grass; 500 g ai/ha): 100

Structure (SMILES): CCNC(=S)c1cccc(NC(=O)c2nn(C(C)(C)C)nc2C)c1 [Compound 420]
- Plant response rating (0 to 100 scale), Pigweed (pigweed; [8]): 100
- Pigweed plant response rating (pigweed; [9]): 70
- Pigweed plant response rating (pigweed; [10]): 60
- Plant response rating, Ragweed (common ragweed; 62 g ai/ha, scale 0 to 100): 0
- Plant response rating (0 = no effect, 100 = complete control), Ragweed (common ragweed; 125 g ai/ha): 55
- Plant response rating, Ragweed (common ragweed; [11]): 85
- Plant response rating (0 to 100 scale), Foxtail, Giant (giant foxtail; [8]): 80
- Foxtail, Giant plant response rating (giant foxtail; [9]): 30
- Foxtail, Giant plant response rating (giant foxtail; [10]): 20
- Plant response rating, Kochia (kochia; 62 g ai/ha, scale 0 to 100): 70
- Plant response rating (0 = no effect, 100 = complete control), Kochia (kochia; 125 g ai/ha): 85
- Plant response rating, Kochia (kochia; 250 g ai/ha, scale 0-100): 100
- Plant response rating, Kochia (kochia; [11]): 100
- Plant response rating, Lambsquarters (lambsquarters; 62 g ai/ha, scale 0 to 100): 95
- Plant response rating (0 = no effect, 100 = complete control), Lambsquarters (lambsquarters; 125 g ai/ha): 100
- Plant response rating, Lambsquarters (lambsquarters; 250 g ai/ha, scale 0-100): 100
- Plant response rating, Lambsquarters (lambsquarters; [11]): 100
- Plant response rating, Crabgrass, Large (large crabgrass; 62 g ai/ha, scale 0 to 100): 100
- Plant response rating (0 = no effect, 100 = complete control), Crabgrass, Large (large crabgrass; 125 g ai/ha): 100
- Plant response rating, Crabgrass, Large (large crabgrass; 250 g ai/ha, scale 0-100): 100
- Plant response rating, Crabgrass, Large (large crabgrass; [11]): 100
- Plant response rating, Goosegrass (goosegrass; 62 g ai/ha, scale 0 to 100): 95
- Plant response rating (0 = no effect, 100 = complete control), Goosegrass (goosegrass; 125 g ai/ha): 95
- Plant response rating, Goosegrass (goosegrass; 250 g ai/ha, scale 0-100): 100
- Plant response rating, Goosegrass (goosegrass; [11]): 100
- Plant response rating, Surinam Grass (Surinam grass; 62 g ai/ha, scale 0 to 100): 10
- Plant response rating (0 = no effect, 100 = complete control), Surinam Grass (Surinam grass; 125 g ai/ha): 20
- Plant response rating, Surinam Grass (Surinam grass; [11]): 95

Structure (SMILES): Cc1nn(C(C)(C)C)nc1C(=O)Nc1cccc(C(=S)N(C)C)c1 [Compound 419]
- Plant response rating (0 to 100 scale), Pigweed (pigweed; [8]): 100
- Pigweed plant response rating (pigweed; [9]): 80
- Pigweed plant response rating (pigweed; [10]): 60
- Plant response rating, Ragweed (common ragweed; 62 g ai/ha, scale 0 to 100): 10
- Plant response rating (0 = no effect, 100 = complete control), Ragweed (common ragweed; 125 g ai/ha): 15
- Plant response rating, Ragweed (common ragweed; [11]): 100
- Plant response rating (0 to 100 scale), Foxtail, Giant (giant foxtail; [8]): 90
- Foxtail, Giant plant response rating (giant foxtail; [9]): 30
- Foxtail, Giant plant response rating (giant foxtail; [10]): 30
- Plant response rating, Kochia (kochia; 62 g ai/ha, scale 0 to 100): 90
- Plant response rating (0 = no effect, 100 = complete control), Kochia (kochia; 125 g ai/ha): 95
- Plant response rating, Kochia (kochia; 250 g ai/ha, scale 0-100): 100
- Plant response rating, Kochia (kochia; [11]): 100
- Plant response rating, Lambsquarters (lambsquarters; 62 g ai/ha, scale 0 to 100): 95
- Plant response rating (0 = no effect, 100 = complete control), Lambsquarters (lambsquarters; 125 g ai/ha): 95
- Plant response rating, Lambsquarters (lambsquarters; 250 g ai/ha, scale 0-100): 100
- Plant response rating, Lambsquarters (lambsquarters; [11]): 100
- Plant response rating, Crabgrass, Large (large crabgrass; 62 g ai/ha, scale 0 to 100): 100
- Plant response rating (0 = no effect, 100 = complete control), Crabgrass, Large (large crabgrass; 125 g ai/ha): 100
- Plant response rating, Crabgrass, Large (large crabgrass; 250 g ai/ha, scale 0-100): 100
- Plant response rating, Crabgrass, Large (large crabgrass; [11]): 100
- Plant response rating, Goosegrass (goosegrass; 62 g ai/ha, scale 0 to 100): 45
- Plant response rating (0 = no effect, 100 = complete control), Goosegrass (goosegrass; 125 g ai/ha): 95
- Plant response rating, Goosegrass (goosegrass; 250 g ai/ha, scale 0-100): 100
- Plant response rating, Goosegrass (goosegrass; [11]): 100
- Plant response rating, Surinam Grass (Surinam grass; 62 g ai/ha, scale 0 to 100): 0
- Plant response rating (0 = no effect, 100 = complete control), Surinam Grass (Surinam grass; 125 g ai/ha): 45
- Plant response rating, Surinam Grass (Surinam grass; [11]): 100
